From PubChem BioAssay (NCI)
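96-well plates; 48 h exposure; 5 concentrations. Endpoints by linear interpolation between flanking doses. Not reached: highest tested concentration assigned. TGI is the concentration that stops growth completely.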

Tests used:
Assay in all cases: NCI-60 cell line screen, 48 h
[1] = test system: TK-10 renal
[2] = test system: CCRF-CEM leukemia
[3] = test system: UACC-257 melanoma
[4] = test system: UO-31 renal
[5] = test system: UACC-62 melanoma
[6] = test system: MDA-N
[7] = test system: OVCAR-3 ovarian
[8] = test system: CAKI-1 renal
[9] = test system: OVCAR-5 ovarian
[10] = test system: HOP-62 NSCLC
[11] = test system: U251 CNS
[12] = test system: MDA-MB-435
[13] = test system: SF-295 CNS
[14] = test system: HCT-116 colon
[15] = test system: SNB-19 CNS
[16] = test system: NCI-H23 lung
[17] = test system: SK-MEL-28 melanoma
[18] = test system: MALME-3M melanoma
[19] = test system: HL-60(TB) leukemia
[20] = test system: PC-3 prostate
[21] = test system: OVCAR-4 ovarian
[22] = test system: NCI-H226 lung
[23] = test system: HS 578T breast
[24] = test system: T-47D breast
[25] = test system: HT29 colon
[26] = test system: SNB-75 CNS
[27] = test system: SF-539 CNS
[28] = test system: RPMI-8226 leukemia
[29] = test system: A498 renal
[30] = test system: HOP-92 NSCLC
[31] = test system: IGROV1 ovarian
[32] = test system: DU-145 prostate
[33] = test system: OVCAR-8 ovarian
[34] = test system: KM12 colon
[35] = test system: LOX IMVI melanoma
[36] = test system: NCI-H460 lung
[37] = test system: M14 melanoma
[38] = test system: MOLT-4 leukemia
[39] = test system: SN12C renal
[40] = test system: ACHN renal
[41] = test system: HCT-15 colon
[42] = test system: SF-268 CNS
[43] = test system: SK-MEL-5 melanoma
[44] = test system: SW-620 colon
[45] = test system: MDA-MB-231 breast
[46] = test system: MCF7 breast
[47] = test system: K-562 leukemia
[48] = test system: EKVX NSCLC
[49] = test system: HCC-2998 colon
[50] = test system: NCI-H522 lung
[51] = test system: 786-0 renal
[52] = test system: A549 NSCLC
[53] = test system: NCI/ADR-RES ovarian
[54] = test system: SK-MEL-2 melanoma
[55] = test system: COLO 205 colon
[56] = test system: SK-OV-3 ovarian
[57] = test system: SR leukemia
[58] = test system: BT-549 breast

Compound: COc1ccc(P2(=S)Oc3ccc(C(c4ccccc4)(c4ccccc4)c4ccccc4)cc3O2)cc1 (stereo not drawn)
- TGI [1]: 33.4 µM
- TGI [2]: 49 µM
- TGI [3]: 34.2 µM
- TGI [4]: 30.8 µM
- TGI [5]: 26.2 µM
- TGI [6]: 32.7 µM
- TGI [7]: 31 µM
- TGI [8]: 33.9 µM
- TGI [9]: 33.6 µM
- TGI [10]: 41.5 µM
- TGI [11]: 31.9 µM
- TGI [12]: 30.1 µM
- TGI [13]: 33.5 µM
- TGI [14]: 32 µM
- TGI [15]: 29.8 µM
- TGI [16]: 31.7 µM
- TGI [17]: 34.3 µM
- TGI [18]: 34.8 µM
- TGI [19]: 32.1 µM
- TGI [20]: 27.1 µM
- TGI [21]: 25.9 µM
- TGI [22]: 31.6 µM
- TGI [23]: 41 µM
- TGI [24]: 28 µM
- TGI [25]: 33.4 µM
- TGI [26]: 26.8 µM
- TGI [27]: 34.4 µM
- TGI [28]: 48.1 µM
- TGI [29]: 31.8 µM
- TGI [30]: 32.4 µM
- TGI [31]: 32.1 µM
- TGI [32]: 35.1 µM
- TGI [33]: 29.8 µM
- TGI [34]: 28.5 µM
- TGI [35]: 28 µM
- TGI [36]: 34.8 µM
- TGI [37]: 27.3 µM
- TGI [38]: 41.7 µM
- TGI [39]: 31.7 µM
- TGI [40]: 30.5 µM
- TGI [41]: 34.8 µM
- TGI [42]: 32.2 µM
- TGI [43]: 36.2 µM
- TGI [44]: 34.6 µM
- TGI [45]: 38.9 µM
- TGI [46]: 34.9 µM
- TGI [47]: 33.8 µM
- TGI [48]: 34.6 µM
- TGI [49]: 30.6 µM
- TGI [50]: 31.9 µM
- TGI [51]: 32.2 µM
- TGI [52]: 30.7 µM
- TGI [53]: 39.5 µM
- TGI [54]: 35.3 µM
- TGI [55]: 34.5 µM
- TGI [56]: 37.5 µM
- TGI [57]: 47.5 µM
- TGI [58]: 41.3 µM
